Reference: patent US20060263448A1, “Use of extracts from roots of pelargonium sidoides and pelargonium reniforme” (priority 2004, published 2006)

Test system: Mycobacterium ranae
Assay: Assay on anti-mycobacterial activity (suspension dilution method)
Format: cell-based
Details: M. ranae, 48 h at 37° C., visual evaluation of growth inhibition
Method: To assay the anti-mycobacterial efficacy, Mycobacterium ranae that represents a non-human pathogenic mycobacterium having a similar sensitivity against chemotherapeutic agents like M. tuberculosis was used. The suspension dilution method was used to determine the minimal inhibitory concentration (MHC). The extract of Pelargonium sidoides was solved in DMSO and serially diluted to obtain the required concentrations. Pelargonium extract or the solvent was added in a volume of 10 μl to 48-well microtiter plates containing 990 μl of an M. ranae suspension (ATCC 10) in a concentration of 1-5×10^5 CFU/ml Brain-Heart Infusion Broth (Difco, USA) per well. The maximum concentration of the solvent (DMSO) was 1%. Pelargonium extract was tested at concentrations between 100 and 0.03 μg/ml. All tests were carried out twice. The plates were incubated for 48 h at 37° C. and then the inhibition of the growth of the bacteria was evaluated visually.

Substance: Gentamicin
- minimal inhibitory concentration (MHC): 0.3 µg/mL
